According to patent US7598397B2, “Sulfonamide peri-substituted bicyclics for occlusive artery disease” (deCODE genetics ehf, priority 2004, dated 2009):

target: T1, prostanoid EP3 receptors (Homo sapiens, UniProt P43115); experiment: binding on prostanoid EP3 receptors (method of Abramovitz et al.); conditions: read-out: Activity (EP3 receptor binding, IC50 class)
T1 sequence (P43115 1-390): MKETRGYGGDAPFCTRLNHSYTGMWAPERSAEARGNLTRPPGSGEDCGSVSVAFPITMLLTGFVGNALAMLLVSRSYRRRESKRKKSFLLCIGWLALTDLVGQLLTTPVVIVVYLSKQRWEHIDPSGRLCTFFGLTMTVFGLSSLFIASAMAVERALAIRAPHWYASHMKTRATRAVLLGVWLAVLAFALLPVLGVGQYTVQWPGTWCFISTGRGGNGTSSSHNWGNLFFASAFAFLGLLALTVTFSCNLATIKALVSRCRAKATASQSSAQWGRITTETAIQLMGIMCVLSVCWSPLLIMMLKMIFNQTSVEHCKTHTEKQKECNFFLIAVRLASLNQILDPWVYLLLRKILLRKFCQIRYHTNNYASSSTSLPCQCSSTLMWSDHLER
Method: The compounds of the invention were assayed for their binding on prostanoid EP3 receptors according to the method of Abramovitz et al. [Bioch. Biophys.

Structure (SMILES)	IC50
CN1C(=O)C(=Nc2ccc3ccccc3c2)c2c(C=CC(=O)NS(=O)(=O)c3cc(Cl)c(Cl)s3)cccc21 [Compound P245]	< 1000 nM
COc1cccc(CN2C(=O)CC3(C)CCCC(C=CC(=O)NS(=O)(=O)c4cc(F)cc(F)c4)=C23)c1 (stereo not drawn) [Compound P307]	< 1000 nM
O=C(C=Cc1cnn2ccn(Cc3ccc4ccccc4c3)c12)NS(=O)(=O)c1cccs1 [Compound P034]	< 1000 nM
Cn1cc(C=CC(=O)NS(=O)(=O)c2cccc(F)c2)c2c(Oc3ccc4ccccc4c3)cccc21 [Compound P363]	< 1000 nM
CN1C(=O)C(C)(Cc2ccc3ccccc3c2)c2c(C=CC(=O)NS(=O)(=O)c3cc(Cl)c(Cl)s3)cccc21 (stereo not drawn) [Compound P148]	< 1000 nM
Cc1cn(CCC(=O)NS(=O)(=O)c2cccc(Cl)c2)c2c(Oc3ccc(Cl)cc3Cl)cc(F)cc12 [Compound P385]	< 1000 nM
Cn1cc(C=CC(=O)NS(=O)(=O)c2cc(F)c(F)cc2F)c2c(Oc3ccc(F)cc3Cl)cccc21 [Compound P340]	< 1000 nM
O=C(C=Cc1cccc2c1N(Cc1ccc3ccccc3c1)C(=O)C2)NS(=O)(=O)c1cc(F)c(F)cc1F [Compound P416]	< 1000 nM
CC12CCCC(C=CC(=O)NS(=O)(=O)c3ccc(OC(F)(F)F)cc3)=C1N(Cc1ccc3ccccc3c1)C(=O)C2 (stereo not drawn) [Compound P269]	< 1000 nM
O=C(C=Cc1cccc2c1N(Cc1ccc3ccccc3c1)C(=O)C2(F)F)NS(=O)(=O)c1cccs1 [Compound P218]	< 1000 nM
CN1C(=O)C(S(=O)(=O)c2ccc3ccccc3c2)c2c(OCC(=O)NS(=O)(=O)c3cc(Cl)c(Cl)s3)cccc21 (stereo not drawn) [Compound P248]	< 1000 nM
CC1(Br)C(=O)N(Cc2ccc3ccccc3c2)c2c(C=CC(=O)NS(=O)(=O)c3cccs3)cccc21 (stereo not drawn) [Compound P110]	< 1000 nM
O=C(COc1cccc2[nH]cc(Sc3ccc4ccccc4c3)c12)NS(=O)(=O)c1cccc(Cl)c1 [Compound P184]	< 1000 nM
Cc1cn(Cc2ccc3ccccc3n2)c2c(/C=C/C(=O)NS(=O)(=O)c3cc(Cl)c(Cl)s3)cccc12 [Compound P146]	< 1000 nM
CN1C(=O)C(Nc2ccc3ccccc3c2)c2c(C=CC(=O)NS(=O)(=O)c3cc(Cl)c(Cl)s3)cccc21 (stereo not drawn) [Compound P242]	< 1000 nM
Cn1cc(C=CC(=O)NS(=O)(=O)c2cc(F)c(F)cc2F)c2c(Oc3ccc(F)c(Cl)c3)cccc21 [Compound P328]	< 1000 nM
COc1ccc(S(=O)(=O)NC(=O)COc2cccc3[nH]cc(S(=O)(=O)c4ccc5ccccc5c4)c23)cc1 [Compound P193]	< 1000 nM
CC1C(=O)N(Cc2ccc(Cl)cc2Cl)c2c(C=CC(=O)NS(=O)(=O)c3cc(Cl)c(Cl)s3)cccc21 (stereo not drawn) [Compound P107]	< 1000 nM
Cc1cn(Cc2ccc(Cl)cc2Cl)c2c(C=CC(=O)NS(=O)(=O)c3cc(Cl)c(Cl)s3)cccc12 [Compound P079]	< 1000 nM
Cc1cn(CCC(=O)NS(=O)(=O)c2ccc(F)c(F)c2)c2c(Oc3ccc4ccccc4c3)cc(F)cc12 [Compound P379]	< 1000 nM
Cn1cc(/C=C/C(=O)NS(=O)(=O)c2ccc(F)c(F)c2)c2c(Oc3ccc4ccccc4c3)cccc21 [Compound P334]	< 1000 nM
COc1ccc(Br)cc1S(=O)(=O)NC(=O)COc1cccc2oc(=O)n(Cc3ccc4ccccc4c3)c12 [Compound P047]	< 1000 nM
CC12CCCC(C=CC(=O)NS(=O)(=O)c3ccc(Cl)s3)=C1N(Cc1ccc(Cl)cc1Cl)C(=O)C2 (stereo not drawn) [Compound P279]	< 1000 nM
COc1ccc(S(=O)(=O)c2c[nH]c3cccc(OCC(=O)NS(=O)(=O)c4cc(Cl)c(Cl)s4)c23)cc1 [Compound P210]	< 1000 nM
O=C(COc1cccc2[nH]cc(Sc3ccc(Cl)c(Cl)c3)c12)NS(=O)(=O)c1cc(Cl)c(Cl)s1 [Compound P178]	< 1000 nM
Cc1cn(Cc2cc3c(cc2Cl)OCO3)c2c(/C=C/C(=O)NS(=O)(=O)c3cccs3)cccc12 [Compound P089]	< 1000 nM
O=C(COc1cccc2c1C(Cc1ccc3ccccc3c1)C(=O)N2)NS(=O)(=O)c1cc(Cl)c(Cl)s1 (stereo not drawn) [Compound P158]	< 1000 nM
O=C(C=Cc1cc(F)cc2c(CO)cn(Cc3ccc(Cl)cc3Cl)c12)NS(=O)(=O)c1cc(Cl)c(Cl)s1 [Compound P397]	< 1000 nM
Cn1cc(C=CC(=O)NS(=O)(=O)c2ccc(F)c(F)c2)c2c(Oc3cnc4ccccc4n3)cccc21 [Compound P393]	< 1000 nM
Cc1cn(Cc2ccc(Cl)cc2Cl)c2c(C=CC(=O)NS(=O)(=O)c3cc(Cl)c(Cl)s3)cncc12 [Compound P348]	< 1000 nM

Other lines, results leading:

IC50	Structure (SMILES)
< 1000 nM	Cc1cn(Cc2cn3ccccc3n2)c2c(C=CC(=O)NS(=O)(=O)c3cc(F)ccc3F)cc(F)cc12 [Compound P407]
< 1000 nM	Cc1cn(Cc2ccc(F)cc2)c2c(C=CC(=O)NS(=O)(=O)c3ccc(F)c(F)c3)cc(F)cc12 [Compound P314]
1000 to 10000 nM	Cc1ccc(C)c(CN2C(=O)COc3cccc(OCC(=O)NS(=O)(=O)c4cccs4)c32)c1 [Compound P021]
< 1000 nM	O=C(C=Cc1cccc2c1C(Nc1cc(Cl)cc(Cl)c1)C(=O)N2)NS(=O)(=O)c1cc(Cl)c(Cl)s1 (stereo not drawn) [Compound P286]
< 1000 nM	Cc1cn(CCC(=O)NS(=O)(=O)c2ccc(F)c(F)c2)c2c(Oc3ccc(Cl)cc3Cl)cc(F)cc12 [Compound P383]
< 1000 nM	Cn1cc(C=CC(=O)NS(=O)(=O)c2cc(F)c(F)cc2F)c2c(Oc3ccc(Cl)c(Cl)c3)cccc21 [Compound P292]
< 1000 nM	O=C(COc1cccc2c1N(Cc1ccc(Cl)cc1Cl)C(=O)CO2)NS(=O)(=O)c1cccs1 [Compound P040]
< 1000 nM	O=C(C=Cc1cc(F)cc2ccn(Cc3ccc(Cl)cc3Cl)c12)NS(=O)(=O)c1cccs1 [Compound P061]
< 1000 nM	Cc1noc(C)c1Cn1cc(C)c2cc(F)cc(C=CC(=O)NS(=O)(=O)c3cc(F)c(F)cc3F)c21 [Compound P370]
< 1000 nM	Cn1cc(C=CC(=O)NS(=O)(=O)c2cc(Cl)c(Cl)s2)c2c(Oc3ccc(F)cc3Cl)cccc21 [Compound P342]
< 1000 nM	CC12CCCC(C=CC(=O)NS(=O)(=O)c3cc(Cl)c(Cl)s3)=C1N(Cc1cccc(Cl)c1Cl)C(=O)C2 (stereo not drawn) [Compound P299]
< 1000 nM	Cn1cc(C=CC(=O)NS(=O)(=O)c2cc(F)c(F)cc2F)c2c(Oc3ccc(F)c(F)c3)cccc21 [Compound P318]
< 1000 nM	O=C(COc1cccc2c1N(Cc1ccc3ccccc3c1)C(=O)CO2)NS(=O)(=O)c1cccs1 [Compound P018]
< 1000 nM	O=C(COc1cccc2[nH]cc(Sc3ccccc3Cl)c12)NS(=O)(=O)c1cc(Cl)c(Cl)s1 [Compound P213]
1000 to 10000 nM	O=C(COc1cccc2c1N(Cc1ccc3nonc3c1)C(=O)CO2)NS(=O)(=O)c1cccs1 [Compound P042]
< 1000 nM	Cn1cc(Oc2ccc3ccccc3c2)c2c(C=CC(=O)NS(=O)(=O)c3cc(Cl)c(Cl)s3)cccc21 [Compound P277]
< 1000 nM	O=C(COc1cccc2[nH]cc(S(=O)(=O)c3ccc(Cl)c(Cl)c3)c12)NS(=O)(=O)c1cc(Cl)c(Cl)s1 [Compound P204]

system: female C57BL/6 mice; experiment: pulmonary thromboembolism induced by arachidonic acid (platelet aggregation in vivo); parameters: species or system mouse; conditions: 100 mg/kg orally, 30 min before arachidonic acid 30 mg/kg i.v.; survival one hour after challenge
Method: The compounds of the invention also were assayed for their effects on platelet aggregation in vivo. An in vivo test of platelet activation is the induction of pulmonary thromboembolism by arachidonic acid, a precursor of prostaglandin formation. Inhibitors of prostaglandin synthesis, e.g., a COX-1 inhibitor such as asprin, are protective in the assay. For the pulmonary thromboembolism assay, concious female C57BL/6 mice were dosed orally with the test compounds and 30 min later thromboembolism was induced by injection of arachidonic acid into a tail vein at a dose of 30 mg per kg body weight. Survival was evaluated one hour after the challenge with arachidonic acid, as mice that survive for that length of time usually recovered fully. The arachidonic acid injection was given via a lateral tail vein in a mouse that had been warmed briefly under a heat lamp (dilation of the tail veins using heat facilitates placing the injection). An insulin syringe, 0.5 mL (from Becton Dickinson) was used for dosing. The dose volume given of both the test compound and the arachidonic acid was adjusted to the weight of the mouse (the dose volume p.o. for test compounds and i.v. for arachidonic acid solution was 10 μL and 5 μL per gram body weight, respectively). The survival rate for mice treated with arachidonic acid only was 1 per 10 mice evaluated or 10%. Survival rates for mice treated with test compounds (100 mg/kg, orally) and then arachidonic acid are shown below in Table 4.

Structure (SMILES)	No. mice surviving/Total no. of mice evalauted	Survival rate
Cc1cn(Cc2ccc3ccccc3c2)c2c(C=CC(=O)NS(=O)(=O)c3cc(Cl)c(Cl)s3)cc(F)cc12 [Compound P068]	4/14	28%
O=C(COc1cccc2[nH]cc(S(=O)(=O)c3ccc4ccccc4c3)c12)NS(=O)(=O)c1cc(Cl)c(Cl)s1 [Compound P150]	4/8	50%
